Assay results taken from patent US7790771B1, “Use of tosylchloramide(s) for treating disease of the skin, mucous membrane, organs and tissues” (Engelhard Arzneimittel GmbH & Co., priority 1999, dated 2010).

Assay: Treatments of Example 5 repeated with corticoid-free bases containing only chloramine T
Type: in vivo
Details: powder added to the bath water
Method: Instead of adhesive salve Volon A with added chloramine T, a normal cooling salve was prepared—“unguentum leniens” which merely contained chloramine T-powder (2% by weight) as active ingredient, but no corticoid. The success described under Example 5 was the same.

For `Cc1ccc(S(=O)(=O)NCl)cc1.[Na]` [chloramine T, tosylchloramide-sodium], which “treatment results compared with Example 5” value is on record?
The value was “comparable results”.
